Test results as given in publication PMC8954547, “Nonpeptidic Z360-Analogs Tagged with Trivalent Radiometals as Anti-CCK2R Cancer Theranostic Agents: A Preclinical Study” (Pharmaceutics, 2022).

What was measured:
HEK293-CCK2i4svR cells = experiment: Radioligand uptake and internalization in HEK293-CCK2i4svR cells; assay type: cell-based, human; details: for Cell uptake (internalized + membrane-bound): of total added activity
Description: A day before the experiment, HEK293-CCK2i4svR cells were seeded in six-well plates. The next day, cells were rinsed with ice-cold internalization medium (IM: DMEM Glutamax-I, supplemented by 1% (v/v) FBS) and then the fresh medium was added (1.2 mL) at 37 °C. A further portion of IM (150 µL) was added in the upper well-row, and DG2 solution in IM (150 µL) was added in the lower row (to a final concentration of 1 μM; non-specific series). Each of the test radioligands, [^67Ga]Ga/[^111In]In/[^177Lu]Lu-GAS1/3 and [^67Ga]Ga/[^111In]In-GAS2, was finally added (250 fmol total conjugates in 150 μL 0.5% BSA-PBS) in all the wells and the plates were incubated at for 1 h at 37 °C in an Incubator-Orbital Shaker unit (MPM Instr. SrI, Bernareggio, MI, Italy); [^111In]In-GAS1/2/3 were incubated for 15 min, 30 min, 1 h and 2 h. At the predetermined time points, the plates were placed on ice, the medium was collected, and the plates were rinsed with 0.5% BSA-PBS (1 mL). Cells were subsequently treated with an acid-wash solution (2 × 600 µL; 50 mM glycine buffer pH 2.8, 0.1 M NaCl) and the fractions collected (membrane-bound). After briefly washing with 0.5% BSA-PBS (1 mL), the cells were lysed with 1 N NaOH (2 × 600 µL), and the fractions were collected (internalized). The radioactivity content of collected fractions was counted in the gamma counter, and the percentage of internalized and membrane-bound fractions per time point were calculated with Microsoft Excel. Specific internalized and membrane-bound counts were determined by subtracting the respective non-specific (in the presence of 1 μM DG2) from the respective total counts. Results represent specific internalized/membrane bound ± SD of total added radioactivity per well from three experiments performed in triplicate.

[1] = Radioligand stability in mice (radio-HPLC of blood and urine); assay type: in vivo; details: mean ± SD; for Intact radioligand in blood: mice blood collected 5 min pi; for Intact radioligand in urine: mice urine collected 30 min pi
Description: The formation of radiometabolites which can be detected in the blood was tested in blood samples collected 5 min post-injection (pi) of each of the radioligands [^67Ga]Ga/[^111In]In/[^177Lu]Lu-GAS1/3 and [^67Ga]Ga/[^111In]In-GAS2. For this study, in-house male Swiss albino mice (body weight: 30 ± 5 g, provided by the NCSR “Demokritos” Animal House) were used in groups of three. The animals received, through the tail vein, a 100-μL bolus containing each radioligand tested (2.5–3 nmol of the total conjugate in vehicle: saline/EtOH 9/1 v/v, corresponding to: up to 11 MBq for In-111, up to 13 MBq for Ga-67 and up to 74 MBq for Lu-177). Mice were euthanized, and blood was collected directly from the heart using a prechilled penicillin syringe and transferred in a prechilled EDTA-containing Eppendorf Protein LoBind® tube on ice (40 µL, 50 mM Na2EDTA solution). After centrifugation (10 min, 2000× g/4 °C, in a Hettich, Universal 320R, centrifuge), the blood plasma was collected, mixed with chilled MeCN in a 1/1 v/v ratio and centrifuged again (10 min, 15,000× g/4 °C). Supernatants were collected and concentrated to a small volume (≈50–100 μL) under a gentle N2-flux at 40 °C. They were then diluted with physiological saline (≈400 μL) and filtered through a Millex GV filter (0.22 μm, 13 mm Ø, Millipore, Milford, CT, USA). Aliquots of the filtrate were analyzed by radio-RP-HPLC using a Waters Symmetry Shield RP18 cartridge column (5 μm, 3.9 mm × 20 mm) eluted at a flow rate of 1.0 mL/min with the following gradient: 100% A/0% B to 55% A/45% B in 45 min; A = 0.1% aqueous TFA (v/v) and B = MeCN (system 2). The elution time (tR) of each parent radioligand was determined by coinjection of blood samples with an aliquot of the labeling solution on the HPLC column. Results were calculated as the average percentage of intact radioligand ± SD derived from three independent experiments.
Following the same injection protocol, radioligands were administered in additional groups of mice, but this time animals were euthanized 30 min pi. The urine was immediately collected from the bladder using a prechilled syringe and transferred as before in a prechilled EDTA-containing Eppendorf Protein LoBind® centrifuge tube on ice (40 µL, 50 mM Na2EDTA solution) and 0.1 mL of physiological saline. Urine proteins were precipitated by adding chilled MeCN in a 1/1 v/v ratio followed by a 10 min centrifugation step (15,000× g/4 °C). The supernatant was then collected and treated following the blood sample workup procedure. Aliquots of the Millex-GV filtrate (containing >90% of total urine activity) were analyzed by radio-HPLC, adopting the aforementioned conditions. Results were calculated as the average percentage of intact radioligand ± SD derived from three independent experiments.

[2] = system: SCID mice bearing twin HEK293-CCK2i4svR and wtHEK293 tumors; experiment: Biodistribution in SCID mice bearing twin HEK293-CCK2i4svR and wtHEK293 xenografts; assay type: in vivo
Description: Inocula containing a suspension of freshly harvested HEK293-CCK2i4svR/wtHEK293 cells (150 μL, 1.8 × 10^7/1.4 × 10^7 cells, respectively, in normal saline) were subcutaneously (sc) injected in the right and left flanks of male SCID mice (24.5 ± 2.3 g body weight, six weeks of age on arrival day, NCSR “Demokritos” Animal House Facility). Well-palpable tumors (0.42 ± 0.37/0.25 ± […], respectively) were grown at the inoculation site 3–4 weeks later, and biodistribution was conducted. On the day of biodistribution, animals were divided into groups of four and received the radioligand through the tail vein as a bolus (100 μL, containing each of: i. 78–91 kBq [^67Ga]GAS1/2/3 corresponding to 7–17 pmol GAS1/2/3; ii. 74–92 kBq [^111In]GAS1/2/3 corresponding to 20–25 pmol GAS1/2/3; iii. 730 kBq [^177Lu]Lu-GAS1/3 corresponding to 40 pmol GAS1/3, in-vehicle: saline/EtOH 9/1 v/v). Animals were euthanized at predetermined time intervals depending upon the radionuclide applied (for [^67Ga]Ga-GAS1/2/3: 1, 4 and 24 h pi; for [^111In]In-GAS1/2/3: 4 and 24 h pi–two extra groups of mice receiving gelofusine together with [^111In]In-GAS1/2 at 4 and 24 h pi were included; and for [^177Lu]Lu-GAS1/3: 4, 24, 48, 72 and 96 h pi). Mice were dissected, and blood samples, organs of interest and tumors were rapidly collected, weighted and counted in the gamma counter. Biodistribution data was calculated as the percentage of the administered dose per gram tissue (%IA/g) with the aid of suitable standards of the administered dose and the Microsoft Excel program. Results are presented as mean % IA/g values ± SD, n = 4 per time point, as determined by the PRISM^TM 6.0 GraphPad software (San Diego, CA, USA).

## CC(C)(C)C(=O)CN1C(=O)[C@H](NC(=O)Nc2cccc(C(=O)NCCOCCOCCOCCNC(=O)[C@H](CCC(=O)O)NC(=O)CCC(C(=O)[O-])N3CCN(CC(=O)[O-])CCN(CC(=O)[O-])CC3)c2)CN(C2CCCCC2)c2ccccc21.[67Ga+3] (stereo in doubt) [[^67Ga]Ga-GAS2]
HEK293-CCK2i4svR cells
  Internalized to membrane-bound ratio: 0.9
HEK293-CCK2i4svR cells; 1 h 37 °C, specific
  Cell uptake (internalized + membrane-bound): 7.32 ± 0.57%
[1]
  Intact radioligand in blood: 96.3 ± 3.7 (3) %
  Intact radioligand in urine: 81.6 ± 1.5 (3) %
[2]; 1 h pi
  Biodistribution, Blood: 0.86 ± 0.08 %IA/g
  Biodistribution, CCK2i4svR(+) Tumor: 4.06 ± 0.07 %IA/g
  Biodistribution, CCK2i4svR(-) Tumor: 0.48 ± 0.03 %IA/g
  Biodistribution, Femur: 0.24 ± 0.03 %IA/g
  Biodistribution, Heart: 0.27 ± 0.03 %IA/g
  Biodistribution, Intestines: > 25 %IA/g
  Biodistribution, Kidneys: 1.48 ± 0.18 %IA/g
  Biodistribution, Liver: 5.51 ± 2.03 %IA/g
  Biodistribution, Lungs: 0.80 ± 0.09 %IA/g
  Biodistribution, Muscle: 0.12 ± 0.02 %IA/g
  Biodistribution, Pancreas: 0.37 ± 0.05 %IA/g
  Biodistribution, Spleen: 0.52 ± 0.06 %IA/g
  Biodistribution, Stomach: 0.32 ± 0.14 %IA/g
[2]; 1 h pi, listed as [67Ga]Ga-GAS2
  Biodistribution, Intestines: 25.26 ± 2.90 %IA/g
[2]; 4 h pi
  Biodistribution, Blood: 0.19 ± 0.06 %IA/g
  Biodistribution, CCK2i4svR(+) Tumor: 1.53 ± 0.26 %IA/g
  Biodistribution, CCK2i4svR(-) Tumor: 0.19 ± 0.08 %IA/g
  Biodistribution, Femur: 0.13 ± 0.03 %IA/g
  Biodistribution, Heart: 0.10 ± 0.03 %IA/g
  Biodistribution, Intestines: > 25 %IA/g
  Biodistribution, Kidneys: 0.39 ± 0.11 %IA/g
  Biodistribution, Liver: 2.64 ± 0.85 %IA/g
  Biodistribution, Muscle: 0.04 ± 0.01 %IA/g
  Biodistribution, Pancreas: 0.08 ± 0.05 %IA/g
  Biodistribution, Spleen: 0.55 ± 0.15 %IA/g
  Biodistribution, Stomach: 0.14 ± 0.06 %IA/g
[2]; 4 h pi, listed as [67Ga]Ga-GAS2
  Biodistribution, Intestines: 26.38 ± 11.89 %IA/g
[2]; 24 h pi
  Biodistribution, Blood: 0.05 ± 0.00 %IA/g
  Biodistribution, CCK2i4svR(+) Tumor: 0.24 ± 0.03 %IA/g
  Biodistribution, CCK2i4svR(-) Tumor: 0.08 ± 0.00 %IA/g
  Biodistribution, Femur: 0.10 ± 0.03 %IA/g
  Biodistribution, Heart: 0.04 ± 0.01 %IA/g
  Biodistribution, Intestines: 0.31 ± 0.32 %IA/g
  Biodistribution, Kidneys: 0.06 ± 0.01 %IA/g
  Biodistribution, Liver: 0.78 ± 0.17 %IA/g
  Biodistribution, Lungs: 0.15 ± 0.02 %IA/g
  Biodistribution, Muscle: 0.02 ± 0.00 %IA/g
  Biodistribution, Pancreas: 0.03 ± 0.00 %IA/g
  Biodistribution, Spleen: 0.35 ± 0.02 %IA/g
  Biodistribution, Stomach: 0.06 ± 0.02 %IA/g
[2]; mouse, in vivo
  Background clearance / excretion route: high hepatobiliary excretion

## CC(C)(C)C(=O)CN1C(=O)[C@H](NC(=O)Nc2cccc(C(=O)NCCOCCOCCOCCNC(=O)[C@H](CCC(=O)O)NC(=O)CN3CCN(CC(=O)[O-])CCN(CC(=O)[O-])CCN(CC(=O)[O-])CC3)c2)CN(C2CCCCC2)c2ccccc21.[67Ga+3] (stereo in doubt) [[^67Ga]Ga-GAS1]
HEK293-CCK2i4svR cells
  Internalized to membrane-bound ratio: 0.7
HEK293-CCK2i4svR cells; 1 h 37 °C, specific
  Internalized fraction: 1.79 ± 0.45 % of total added activity
  Cell uptake (internalized + membrane-bound): 4.26 ± 0.99%
[1]
  Intact radioligand in blood: 93.9 ± 0.6 (3) %
  Intact radioligand in urine: 80.2 ± 1.0 (3) %
[2]; 1 h pi
  Biodistribution, Blood: 6.53 ± 1.33 %IA/g
  Biodistribution, CCK2i4svR(+) Tumor: 12.62 ± 1.76 %IA/g
  Biodistribution, CCK2i4svR(-) Tumor: 1.62 ± 0.12 %IA/g
  Biodistribution, Femur: 0.97 ± 0.12 %IA/g
  Biodistribution, Heart: 2.11 ± 0.86 %IA/g
  Biodistribution, Intestines: 2.33 ± 0.44 %IA/g
  Biodistribution, Kidneys: 5.78 ± 0.48 %IA/g
  Biodistribution, Liver: 3.39 ± 0.35 %IA/g
  Biodistribution, Lungs: 3.63 ± 0.69 %IA/g
  Biodistribution, Muscle: 0.61 ± 0.07 %IA/g
  Biodistribution, Pancreas: 2.26 ± 0.18 %IA/g
  Biodistribution, Spleen: 1.63 ± 0.16 %IA/g
  Biodistribution, Stomach: 1.09 ± 0.22 %IA/g
[2]; 4 h pi
  Biodistribution, Blood: 1.25 ± 0.27 %IA/g
  Biodistribution, CCK2i4svR(-) Tumor: 0.75 ± 0.19 %IA/g
  Biodistribution, Femur: 0.29 ± 0.16 %IA/g
  Biodistribution, Heart: 0.47 ± 0.09 %IA/g
  Biodistribution, Intestines: 2.84 ± 0.38 %IA/g
  Biodistribution, Kidneys: 3.59 ± 0.60 %IA/g
  Biodistribution, Liver: 2.49 ± 0.31 %IA/g
  Biodistribution, Lungs: 1.19±0.21 %IA/g
  Biodistribution, Muscle: 0.19±0.07 %IA/g
  Biodistribution, Pancreas: 0.51 ± 0.09 %IA/g
  Biodistribution, Spleen: 0.78±0.02 %IA/g
  Biodistribution, Stomach: 0.37 ± 0.08 %IA/g
[2]; 24 h pi
  Biodistribution, Blood: 0.08 ± 0.01 %IA/g
  Biodistribution, CCK2i4svR(+) Tumor: 2.47 ± 0.41 %IA/g
  Biodistribution, CCK2i4svR(-) Tumor: 0.00 ± 0.00 %IA/g
  Biodistribution, Femur: 0.18 ± 0.04 %IA/g
  Biodistribution, Heart: 0.13 ± 0.01 %IA/g
  Biodistribution, Intestines: 0.32 ± 0.13 %IA/g
  Biodistribution, Kidneys: 0.88 ± 0.17 %IA/g
  Biodistribution, Liver: 0.75 ± 0.08 %IA/g
  Biodistribution, Lungs: 0.31 ± 0.16 %IA/g
  Biodistribution, Muscle: 0.05 ± 0.02 %IA/g
  Biodistribution, Pancreas: 0.22 ± 0.01 %IA/g
  Biodistribution, Spleen: 0.51 ± 0.12 %IA/g
  Biodistribution, Stomach: 0.18 ± 0.02 %IA/g
